According to ChEMBL document CHEMBL4387706, “Discovery of Novel Spiroindoline Derivatives as Selective Tankyrase Inhibitors” (J Med Chem, 2019):

Assays:
Tankyrase 1/2 = target: T1, Tankyrase 1/2 (Homo sapiens, UniProt Q9H2K2+O95271)
T1 sequence (Q9H2K2 whole entry): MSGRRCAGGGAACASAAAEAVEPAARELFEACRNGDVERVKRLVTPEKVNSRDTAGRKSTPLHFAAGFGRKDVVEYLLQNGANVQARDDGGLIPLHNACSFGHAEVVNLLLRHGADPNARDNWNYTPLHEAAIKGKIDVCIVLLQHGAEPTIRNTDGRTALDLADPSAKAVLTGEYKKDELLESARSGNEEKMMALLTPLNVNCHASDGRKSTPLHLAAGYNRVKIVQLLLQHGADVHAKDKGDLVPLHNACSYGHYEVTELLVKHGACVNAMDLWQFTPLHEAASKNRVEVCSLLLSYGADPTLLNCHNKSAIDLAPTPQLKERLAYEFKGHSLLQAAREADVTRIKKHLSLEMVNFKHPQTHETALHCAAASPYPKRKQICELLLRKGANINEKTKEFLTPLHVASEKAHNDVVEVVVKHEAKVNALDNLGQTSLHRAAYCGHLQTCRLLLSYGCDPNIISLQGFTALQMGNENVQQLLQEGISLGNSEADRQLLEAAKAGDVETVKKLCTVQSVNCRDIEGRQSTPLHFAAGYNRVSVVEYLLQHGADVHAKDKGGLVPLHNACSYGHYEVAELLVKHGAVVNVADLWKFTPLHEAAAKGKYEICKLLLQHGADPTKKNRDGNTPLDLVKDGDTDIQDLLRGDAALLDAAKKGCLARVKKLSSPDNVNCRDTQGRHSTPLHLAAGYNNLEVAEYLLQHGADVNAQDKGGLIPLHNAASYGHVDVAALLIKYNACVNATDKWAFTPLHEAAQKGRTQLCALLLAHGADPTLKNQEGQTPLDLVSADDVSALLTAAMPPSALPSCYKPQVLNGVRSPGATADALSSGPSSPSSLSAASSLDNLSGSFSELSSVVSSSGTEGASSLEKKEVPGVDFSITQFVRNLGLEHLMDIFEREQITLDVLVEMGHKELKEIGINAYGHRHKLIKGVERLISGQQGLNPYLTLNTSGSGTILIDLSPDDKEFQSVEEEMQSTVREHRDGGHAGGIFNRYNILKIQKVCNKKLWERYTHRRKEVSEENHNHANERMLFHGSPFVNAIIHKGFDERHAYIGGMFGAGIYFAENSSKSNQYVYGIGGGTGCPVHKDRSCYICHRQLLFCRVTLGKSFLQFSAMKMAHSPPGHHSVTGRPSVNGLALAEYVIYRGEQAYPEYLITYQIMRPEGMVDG
T1 sequence (O95271 whole entry): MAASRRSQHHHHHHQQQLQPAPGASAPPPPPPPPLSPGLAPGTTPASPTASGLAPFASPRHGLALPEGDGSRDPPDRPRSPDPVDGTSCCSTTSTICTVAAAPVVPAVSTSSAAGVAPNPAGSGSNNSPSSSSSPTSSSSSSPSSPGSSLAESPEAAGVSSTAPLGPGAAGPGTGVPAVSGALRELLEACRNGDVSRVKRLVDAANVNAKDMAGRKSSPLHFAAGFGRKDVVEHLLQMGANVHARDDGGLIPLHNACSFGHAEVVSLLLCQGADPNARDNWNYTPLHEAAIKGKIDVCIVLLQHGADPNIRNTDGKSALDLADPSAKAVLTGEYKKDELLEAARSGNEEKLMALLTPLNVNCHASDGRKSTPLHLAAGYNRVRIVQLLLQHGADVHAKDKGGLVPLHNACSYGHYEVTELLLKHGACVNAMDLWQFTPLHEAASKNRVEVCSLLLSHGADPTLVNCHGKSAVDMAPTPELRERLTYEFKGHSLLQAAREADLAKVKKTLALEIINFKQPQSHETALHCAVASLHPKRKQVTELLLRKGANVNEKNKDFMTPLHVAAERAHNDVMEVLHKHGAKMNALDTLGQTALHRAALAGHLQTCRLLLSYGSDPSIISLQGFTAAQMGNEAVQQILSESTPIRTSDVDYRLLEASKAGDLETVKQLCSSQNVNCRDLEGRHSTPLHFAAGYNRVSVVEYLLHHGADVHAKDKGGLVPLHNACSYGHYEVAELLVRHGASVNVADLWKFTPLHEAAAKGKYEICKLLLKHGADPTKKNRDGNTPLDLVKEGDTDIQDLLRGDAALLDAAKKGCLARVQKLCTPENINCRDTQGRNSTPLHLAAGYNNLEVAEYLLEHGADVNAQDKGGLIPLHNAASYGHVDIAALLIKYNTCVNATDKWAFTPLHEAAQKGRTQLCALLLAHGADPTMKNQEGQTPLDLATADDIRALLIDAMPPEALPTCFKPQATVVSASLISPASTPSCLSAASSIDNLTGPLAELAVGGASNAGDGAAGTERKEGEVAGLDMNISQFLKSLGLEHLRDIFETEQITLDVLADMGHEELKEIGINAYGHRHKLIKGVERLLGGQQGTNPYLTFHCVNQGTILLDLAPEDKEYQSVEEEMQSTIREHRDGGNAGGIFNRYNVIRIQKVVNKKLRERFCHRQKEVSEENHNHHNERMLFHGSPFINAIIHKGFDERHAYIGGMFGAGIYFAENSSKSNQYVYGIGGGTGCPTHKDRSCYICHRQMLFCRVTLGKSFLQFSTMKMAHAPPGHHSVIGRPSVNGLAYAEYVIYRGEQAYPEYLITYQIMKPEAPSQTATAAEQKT
Description: Inhibition of TNKS/TNKS2 (unknown origin) expressed in human DLD1 cells assessed as reduction in Wnt-signaling measured after 24 hrs by TCF-luciferase reporter gene assay

[1] = Permeability of the compound by PAMPA; assay type: ADME; settings: read-out: permeability
[2] = target: Alpha-1A adrenergic receptor (Rattus norvegicus) (UniProt P43140); test: Displacement of [3H]prazosin from alpha1A receptor in Wistar rat submaxillary gland membranes at 10 uM measured after 60 mins by scintillation counting method relative to control; assay type: cell membranes
hERG (KCNH2) = hERG (KCNH2) (Homo sapiens, UniProt Q12809); test: Displacement of [3H]dofetilide from full-length recombinant human ERG receptor expressed in HEK293 cells at 10 uM measured after 60 mins by scintillation counting method relative to control; assay type: cell-based; settings: HEK293 cells expressing recombinant human ERG, probe [3H]dofetilide
[3] = target: Mu-type opioid receptor (Homo sapiens) (UniProt P35372); test: Displacement of [3H]diprenorphine from full-length recombinant human MOR expressed in CHOK1 cells at 10 uM measured after 60 mins by scintillation counting method relative to control; assay type: cell-based
[4] = target: Beta-2 adrenergic receptor (Homo sapiens) (UniProt P07550); test: Displacement of [3H]CGP-12177 from full-length recombinant human beta2 receptor expressed in CHO cells co-expressing NBR1 at 10 uM measured after 120 mins by scintillation counting method relative to control; assay type: cell-based
[5] = target: 5-hydroxytryptamine receptor 1B (Homo sapiens) (UniProt P28222); test: Displacement of [3H]GR125743 from full-length recombinant human 5HT1B receptor expressed in human Chem1 cells at 10 uM measured after 90 mins by scintillation counting method relative to control; assay type: cell-based
Chain of 5-hydroxytryptamine receptor 1B (Homo sapiens) (P28222 whole entry): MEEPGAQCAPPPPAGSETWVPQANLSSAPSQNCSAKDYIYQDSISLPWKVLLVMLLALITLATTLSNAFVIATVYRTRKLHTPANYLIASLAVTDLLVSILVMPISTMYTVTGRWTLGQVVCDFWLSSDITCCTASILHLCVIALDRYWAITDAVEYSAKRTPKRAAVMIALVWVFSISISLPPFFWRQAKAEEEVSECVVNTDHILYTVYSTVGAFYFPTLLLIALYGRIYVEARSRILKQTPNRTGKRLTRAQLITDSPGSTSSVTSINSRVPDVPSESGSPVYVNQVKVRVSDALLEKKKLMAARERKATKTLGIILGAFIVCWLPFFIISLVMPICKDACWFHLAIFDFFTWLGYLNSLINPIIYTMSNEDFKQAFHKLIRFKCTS

Chain of Beta-2 adrenergic receptor (Homo sapiens) (P07550 whole entry, looked up): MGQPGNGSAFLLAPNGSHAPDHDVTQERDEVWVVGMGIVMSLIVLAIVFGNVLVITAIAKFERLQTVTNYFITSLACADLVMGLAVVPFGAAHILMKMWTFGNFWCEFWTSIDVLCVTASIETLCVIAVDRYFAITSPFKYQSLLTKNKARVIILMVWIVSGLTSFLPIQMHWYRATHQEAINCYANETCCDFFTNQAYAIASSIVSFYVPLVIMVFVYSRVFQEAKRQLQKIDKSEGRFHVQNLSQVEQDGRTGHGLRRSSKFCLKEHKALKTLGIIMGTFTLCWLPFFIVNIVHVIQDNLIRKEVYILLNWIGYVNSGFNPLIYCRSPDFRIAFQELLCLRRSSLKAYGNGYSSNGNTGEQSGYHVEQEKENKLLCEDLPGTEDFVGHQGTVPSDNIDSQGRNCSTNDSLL
Chain of hERG (KCNH2) (Q12809 whole entry): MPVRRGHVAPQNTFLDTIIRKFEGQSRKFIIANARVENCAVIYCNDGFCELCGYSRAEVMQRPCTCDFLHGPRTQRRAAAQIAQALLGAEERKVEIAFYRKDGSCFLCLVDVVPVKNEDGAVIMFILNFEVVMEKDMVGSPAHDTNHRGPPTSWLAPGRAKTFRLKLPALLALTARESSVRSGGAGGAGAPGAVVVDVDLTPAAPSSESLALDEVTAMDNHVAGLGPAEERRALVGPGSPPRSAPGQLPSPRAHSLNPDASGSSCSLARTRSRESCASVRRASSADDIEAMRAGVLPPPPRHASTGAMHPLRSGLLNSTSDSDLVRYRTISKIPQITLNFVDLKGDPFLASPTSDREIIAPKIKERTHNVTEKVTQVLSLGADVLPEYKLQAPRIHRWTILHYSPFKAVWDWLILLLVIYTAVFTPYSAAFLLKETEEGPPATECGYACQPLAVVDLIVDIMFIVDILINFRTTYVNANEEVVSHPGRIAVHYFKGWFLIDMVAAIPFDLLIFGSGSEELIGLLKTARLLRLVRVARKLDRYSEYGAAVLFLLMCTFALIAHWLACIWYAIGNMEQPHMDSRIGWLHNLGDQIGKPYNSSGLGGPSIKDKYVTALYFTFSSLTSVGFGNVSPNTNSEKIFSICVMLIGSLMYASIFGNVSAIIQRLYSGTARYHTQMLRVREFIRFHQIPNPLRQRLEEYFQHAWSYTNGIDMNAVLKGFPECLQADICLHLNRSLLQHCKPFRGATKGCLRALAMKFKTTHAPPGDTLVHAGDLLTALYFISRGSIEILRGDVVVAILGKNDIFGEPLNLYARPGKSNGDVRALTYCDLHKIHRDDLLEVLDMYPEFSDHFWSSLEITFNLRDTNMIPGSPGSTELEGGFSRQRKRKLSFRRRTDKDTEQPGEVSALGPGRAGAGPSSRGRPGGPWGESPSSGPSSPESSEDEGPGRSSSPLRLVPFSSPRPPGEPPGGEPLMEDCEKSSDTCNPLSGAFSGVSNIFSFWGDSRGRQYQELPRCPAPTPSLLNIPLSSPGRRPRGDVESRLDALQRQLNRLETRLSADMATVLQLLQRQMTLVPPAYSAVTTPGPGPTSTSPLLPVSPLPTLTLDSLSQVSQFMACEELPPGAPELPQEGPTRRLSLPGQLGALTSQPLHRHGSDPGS
Chain of Alpha-1A adrenergic receptor (Rattus norvegicus) (P43140 whole entry): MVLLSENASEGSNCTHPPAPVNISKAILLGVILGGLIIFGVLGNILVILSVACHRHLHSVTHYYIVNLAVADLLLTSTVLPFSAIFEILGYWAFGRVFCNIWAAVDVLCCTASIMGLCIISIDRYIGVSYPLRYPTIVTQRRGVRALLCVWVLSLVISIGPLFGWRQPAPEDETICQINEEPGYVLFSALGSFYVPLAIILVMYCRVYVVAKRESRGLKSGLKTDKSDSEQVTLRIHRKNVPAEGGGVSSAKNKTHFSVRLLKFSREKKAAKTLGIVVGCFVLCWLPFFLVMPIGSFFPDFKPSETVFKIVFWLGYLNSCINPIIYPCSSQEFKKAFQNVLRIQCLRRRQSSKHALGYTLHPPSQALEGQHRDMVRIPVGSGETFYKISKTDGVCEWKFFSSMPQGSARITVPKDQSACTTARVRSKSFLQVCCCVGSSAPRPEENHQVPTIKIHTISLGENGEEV
Chain of Mu-type opioid receptor (Homo sapiens) (P35372 whole entry): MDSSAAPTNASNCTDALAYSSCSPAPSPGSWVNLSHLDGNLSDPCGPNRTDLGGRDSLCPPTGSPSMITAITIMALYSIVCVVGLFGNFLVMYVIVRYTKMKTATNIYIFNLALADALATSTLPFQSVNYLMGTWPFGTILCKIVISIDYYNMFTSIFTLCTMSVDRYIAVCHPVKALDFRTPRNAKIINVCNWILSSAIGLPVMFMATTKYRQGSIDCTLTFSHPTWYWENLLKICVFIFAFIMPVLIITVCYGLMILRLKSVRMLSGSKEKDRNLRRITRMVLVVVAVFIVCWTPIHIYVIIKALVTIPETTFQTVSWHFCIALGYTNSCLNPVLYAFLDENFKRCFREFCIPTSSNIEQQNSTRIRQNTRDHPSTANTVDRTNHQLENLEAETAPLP

COc1ccccc1N1CCN(c2nc3c(c(=O)[nH]2)CCCC3)CC1
IC50 (Tankyrase 1/2): 233 nM | Papp [1]: 0.34 ×10⁻⁶ cm/s

O=c1[nH]c(N2CCC3(CC2)CN(CCO)c2cc(F)cc(F)c23)nc2c1CCCC2
inhibition [2]: > 20% | inhibition at 1 h, 10 µM (hERG (KCNH2)): > 20% | inhibition [3]: > 20% | inhibition [4]: > 20% | inhibition [5]: > 20%
